In USRE32868E, “Antihyperlipidemic compositions” (Research Corporation, priority 1985, dated 1989):

Test system: mice
Assay: Acute toxicity (LD50) in mice
Format: in vivo
Settings: 2 g/kg
Excerpt: They also are non-toxic. […] Moreover, there is no evidence that the weight of any of the major organs is altered as a result of treatment with compounds used in the invention.

## CC(=O)CN1C(=O)c2ccccc2C1=O [1-N--Phthalimidopropan-2-one]
  deaths: no deaths were observed
